This note sets out measurements from patent publication US20260217708A1, “FUSED BENZAZEPINE DERIVATIVES FOR USE IN THE TREATMENT OF CANCER AND EPILEPSY” (UCB BIOPHARMA SRL, priority 2023, published 2026).

Bounds are passed on as bounds.

Assay [1] deals with T1, system Xc^− (Homo sapiens, UniProt Q9UPY5).
T1 sequence (Q9UPY5 1-501): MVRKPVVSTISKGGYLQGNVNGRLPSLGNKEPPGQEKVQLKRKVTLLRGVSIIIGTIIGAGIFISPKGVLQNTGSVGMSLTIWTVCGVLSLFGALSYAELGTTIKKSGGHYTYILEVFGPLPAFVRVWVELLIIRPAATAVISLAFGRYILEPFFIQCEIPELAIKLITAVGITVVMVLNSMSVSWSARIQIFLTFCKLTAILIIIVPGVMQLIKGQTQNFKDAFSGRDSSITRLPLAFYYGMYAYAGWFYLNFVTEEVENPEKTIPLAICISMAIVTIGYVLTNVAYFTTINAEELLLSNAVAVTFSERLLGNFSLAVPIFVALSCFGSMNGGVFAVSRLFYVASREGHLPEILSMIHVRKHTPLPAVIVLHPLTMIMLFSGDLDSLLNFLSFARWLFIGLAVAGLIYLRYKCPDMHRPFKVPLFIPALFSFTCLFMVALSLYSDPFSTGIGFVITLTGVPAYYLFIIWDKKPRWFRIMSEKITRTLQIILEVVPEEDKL
T1 sequence (P08195 1-529 partner): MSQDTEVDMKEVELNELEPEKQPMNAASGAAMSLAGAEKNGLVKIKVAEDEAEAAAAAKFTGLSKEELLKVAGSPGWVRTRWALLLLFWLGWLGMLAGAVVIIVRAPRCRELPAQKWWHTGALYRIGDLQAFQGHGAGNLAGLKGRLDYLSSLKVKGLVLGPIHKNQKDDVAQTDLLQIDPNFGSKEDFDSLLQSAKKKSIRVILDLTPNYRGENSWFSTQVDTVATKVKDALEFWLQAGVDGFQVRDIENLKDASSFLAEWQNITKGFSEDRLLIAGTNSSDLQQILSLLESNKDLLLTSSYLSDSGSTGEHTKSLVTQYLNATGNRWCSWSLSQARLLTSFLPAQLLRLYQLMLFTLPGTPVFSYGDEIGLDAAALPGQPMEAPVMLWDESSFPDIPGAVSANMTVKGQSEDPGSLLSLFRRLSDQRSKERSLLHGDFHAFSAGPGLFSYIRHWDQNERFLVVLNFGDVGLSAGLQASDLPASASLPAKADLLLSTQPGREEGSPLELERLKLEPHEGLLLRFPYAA
Kind of assay: [^14C]L-Cystine uptake assay. Also on record: endogenous in cells; host or cells: H4 cells. It is filed as cell-based. The following applies: H4 cells, sodium-free HEPES buffer, 0.5 μM L-[14C]Cystine and 4.5 μM L-Cystine, 1 hour at 37° C.; read-out: pIC50 [^14C] L-Cystine uptake assay (converted). The method, boiled down: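 Compound effect is given as pIC50, taken between controls of 1% DMSO and 50 μM Erastin. Human H4 cells were pretreated 15 min with compound in sodium-free buffer, then took up 0.5 μM [14C]cystine with 4.5 μM cold cystine for 1 hour at 37° C, read by scintillation proximity counting.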

The target in assay [2] is T1, system Xc^−. The assay is described as follows: Cystine-induced glutamate release assay. It counts as cell-based. Also on record: endogenous in cells; host or cells: H4 cells. To be noted: H4 cells, sodium-free HEPES buffer, 50 μM L-Cystine, 2 hours, Amplex Red glutamate readout; read-out: pIC50 Cystine-induced glutamate release assay (converted). The method, boiled down: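 IC50 (reported as pIC50) normalized to DMSO 1% and Erastin 50 μM controls, from Amplex Red fluorescence of glutamate exported into supernatant. H4 cells were washed into sodium-free buffer to exclude EAAT transport, then given compound with 50 μM L-cystine for 2 h in the incubator.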

As to `Cc1cc2c(c(C#N)n1)-c1ncccc1CC(=O)N2CC(=O)Nc1ccc(C(F)(F)F)cc1` [#392, 2-(15-cyano-13-methyl-9-oxo-3,10,14-triazatricyclo[9.4.0.0^2,7]pentadeca-1(11),2,4,6,12,14-hexaen-10-yl)-N-[4-(trifluoromethyl)phenyl]acetamide], the IC50 is 15.8 to 39.8 nM in assay [1] and 39.8 to 100 nM in assay [2].

For `Cc1cc2c(cn1)-c1ccc(F)cc1CC(=O)N2CC(=O)Nc1ccc(C(F)(F)F)cc1` [#34, 2-(9-fluoro-3-methyl-6-oxo-7H-pyrido[4,3-d][3]benzazepin-5-yl)-N-[4-(trifluoro-methyl)phenyl] acetamide], the IC50 is 39.8 to 100 nM in assay [1] and 100 to 501 nM in assay [2].

In the case of `Cc1cc2c(c(=O)o1)-c1cccnc1C(C)C(=O)N2CC(=O)Nc1ccc(C(F)F)cc1` (single isomer, unassigned) [#360, N-[4-(difluoromethyl)phenyl]-2-[5,10-dimethyl-3,9-dioxo-4-oxa-8,12-diazatricyclo[9.4.0.0^2,7]pentadeca-1(15),2(7),5,11,13-pentaen-8-yl]acetamide], the IC50 was 39.8 to 100 nM in assay [1] and 15.8 to 39.8 nM in assay [2].

As for `O=C(CN1C(=O)Cc2ccccc2-c2c1cc(C(F)F)nc2Cl)Nc1ccc(C(F)F)cc1` [#339, 2-[1-chloro-3-(difluoromethyl)-6-oxo-7H-pyrido[4,3-d][3]benzazepin-5-yl]-N-[4-(difluoromethyl)phenyl]acetamide], the IC50 in assay [1] and in assay [2] was less than 15.8 nM each time.

With `Cc1cc2c(c(Cl)n1)-c1cc(F)nn1C(C)C(=O)N2CC(=O)Nc1ccc(C(F)F)cc1` (single isomer, unassigned) [#389, 2-[14-chloro-4-fluoro-7,12-dimethyl-8-oxo-5,6,9,13-tetrazatricyclo[8.4.0.0^2,6]tetradeca-1(14),2,4,10,12-pentaen-9-yl]-N-[4-(difluoromethyl)phenyl]acetamide], the IC50 in assay [1] and in assay [2] was less than 15.8 nM each time.

For the compound `Cc1cc2c(c(C#N)n1)-c1cccnc1CC(=O)N2CC(=O)Nc1ccc(C(F)(F)F)cc1` [#153, 2-(3-cyano-5-methyl-9-oxo-4,8,12-triazatricyclo[9.4.0.0^2,7]pentadeca-1(11),2(7),3,5,12,14-hexaen-8-yl)-N-[4-(trifluoromethyl)phenyl]acetamide], the IC50 in assay [1] and in assay [2] was 15.8 to 39.8 nM in each case.

For the compound `Cc1cc2c(cn1)-c1cccnc1C(C)C(=O)N2CC(=O)Nc1ccc(Cl)c(F)c1` (single isomer, unassigned) [#251, N-(4-chloro-3-fluoro-phenyl)-2-[5,10-dimethyl-9-oxo-4,8,12-triazatricyclo[9.4.0.0^2,7]pentadeca-1(15),2,4,6,11,13-hexaen-8-yl]acetamide], the IC50 in assay [1] and in assay [2] was less than 15.8 nM in each case.

Regarding `CC1C(=O)N(CC(=O)Nc2ccc(C(F)F)cc2)c2cc(N3CC(F)C3)nc(F)c2-c2cccnc21` (single isomer, unassigned) [#274, N-[4-(difluoromethyl)phenyl]-2-[3-fluoro-5-(3-fluoroazetidin-1-yl)-10-methyl-9-oxo-4,8,12-triazatricyclo[9.4.0.0^2,7]pentadeca-1(15),2,4,6,11,13-hexaen-8-yl]acetamide], the IC50 in assay [1] and in assay [2] was less than 15.8 nM each time.

Turning to `Cc1cc2c(c(C)n1)-c1cc(F)ccc1CC(=O)N2CC(=O)Nc1ccc(C(F)(F)F)cc1` [#63, 2-(10-fluoro-1,3-dimeth-yl-6-oxo-7H-pyrido[4,3-d][3]benzazepin-5-yl)-N-[4-(trifluoromethyl)-phenyl]acetamide], the values for the IC50 in assay [1] and in assay [2] were less than 15.8 nM and 15.8 to 39.8 nM, respectively.

On to `Cc1cc2c(c(F)n1)-c1cncc(F)c1CC(=O)N2CC(=O)Nc1ccc(C(F)(F)F)cc1` [#212, 2-(3,12-difluoro-5-methyl-9-oxo-4,8,14-triazatricyclo[9.4.0.0^2,7]pentadeca-1(11),2(7),3,5,12,14-hexaen-8-yl)-N-[4-(trifluoromethyl)phenyl]acetamide], for which the IC50 was 15.8 to 39.8 nM in assay [1] and 100 to 501 nM in assay [2].

`Cc1cc2c(cc1C)N(CC(=O)Nc1ccc(C(F)(F)F)cc1)C(=O)Cc1ccc(Cl)nc1-2` [#10, 2-(2-chloro-9,10-dimethyl-6-oxo-5H-pyrido[3,2-d][1]benzazepin-7-yl)-N-[4-(trifluoromethyl)phenyl]acetamide]: the IC50 in assay [1] and in assay [2] was 100 to 501 nM in each case.

For `COc1nc(C)cc2c1-c1cc(C)nn1CC(=O)N2CC(=O)Nc1ccc(C(F)(F)F)cc1` [#104, 2-(14-methoxy-4,12-dimethyl-8-oxo-5,6,9,13-tetrazatricyclo[8.4.0.0^2,6]tetradeca-1(14),2,4,10,12-pentaen-9-yl)-N-[4-(trifluoromethyl)phenyl]acetamide], the IC50 in assay [1] and in assay [2] was 39.8 to 100 nM each time.

On to `Cc1cc2c(c(C)n1)-c1cccnc1CC(=O)N2CC(=O)Nc1ccc(C2CC2)cc1` [#58, N-(4-cyclopropylphenyl)-2-(3,5-dimethyl-9-oxo-4,8,12-triazatricyclo[9.4.0.0^2,7]pentadeca-1(11),2(7),3,5,12,14-hexaen-8-yl)acetamide], for which the values for the IC50 in assay [1] and in assay [2] were 100 to 501 nM and 39.8 to 100 nM, respectively.

For the compound `CC1C(=O)N(CC(=O)Nc2ccc(C(F)F)cc2)c2cc(N3CCOCC3)nc(F)c2-c2cccnc21` (centres unmarked) [#271, N-[4-(difluoromethyl)phenyl]-2-(3-fluoro-10-methyl-5-morpholino-9-oxo-4.8,12-triazatricyclo[9.4.0.0^2,7]pentadeca-1(15),2,4,6,11,13-hexaen-8-yl)acetamide], the IC50 is less than 15.8 nM in assay [1] and 15.8 to 39.8 nM in assay [2].

As to `O=C(CN1C(=O)Cc2ncccc2-c2c1cc(Cl)c(F)c2Cl)Nc1ccc(C(F)(F)F)cc1` [#52, 2-(9,11-dichloro-10-fluoro-6-oxo-5H-pyrido[2,3-d][1]benz-azepin-7-yl)-N-[4-(trifluoromethyl)phen-yl]acetamide], the IC50 in assay [1] and in assay [2] was 100 to 501 nM in each case.

For `Cc1cc2c(c(F)n1)-c1cccnc1[C@@H](C)C(=O)N2CC(=O)Nc1ccc(C2(F)CC2)c(F)c1` [#248, 2-[(10R)-3-fluoro-5,10-dimethyl-9-oxo-4,8,12-triazatricyclo[9.4.0.0^2,7]pentadeca-1(11),2(7),3,5,12,14-hexaen-8-yl]-N-[3-fluoro-4-(1-fluorocyclopropyl)phenyl]acetamide], the IC50 in assay [1] and in assay [2] was less than 15.8 nM each time.

As for `Cc1cc2c(c(Cl)n1)-c1cccnc1C(C)C(=O)N2CC(=O)Nc1ccc(Br)c(F)c1` (single isomer, unassigned) [#224, Enantiomer (10S) or (10R) of N-(4-bromo-3-fluoro-phenyl)-2-[3-chloro-5,10-dimethyl-9-oxo-4,8,12-triazatricyclo[9.4.0.0^2,7]pentadeca-1(15),2,4,6,11,13-hexaen-8-yl]acetamide], the IC50 is less than 15.8 nM in assay [1] and 15.8 to 39.8 nM in assay [2].

As for `CO[C@H]1C(=O)N(CC(=O)Nc2ccc(C(F)(F)F)cc2)c2cc(C)nc(Cl)c2-c2cccnc21` (single isomer, unassigned) [#210, Enantiomer (10S) or (10R) of 2-[3-chloro-10-methoxy-5-methyl-9-oxo-4,8,12-triazatricyclo[9.4.0.0^2,7]pentadeca-1(11),2(7),3,5,12,14-hexaen-8-yl]-N-[4-(trifluoromethyl)phenyl]acetamide], the IC50 in assay [1] is less than 15.8 nM; in assay [2], 15.8 to 39.8 nM.

Take `COc1ccc2c(c1)-c1c(cc(C)nc1Cl)N(CC(=O)Nc1ccc(C(F)(F)F)cc1)C(=O)C2C` (centres unmarked) [#164, 2-(1-chloro-10-methoxy-3,7-dimethyl-6-oxo-7H-pyrido[4,3-d][3]benzazepin-5-yl)-N-[4-(trifluoromethyl)phenyl]acetamide]: the IC50 is 39.8 to 100 nM in assay [1] and 100 to 501 nM in assay [2].
